Results from ChEMBL document CHEMBL1201862, “PubChem BioAssay data set” (2004).
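96-well plates; 48 h exposure; 5 concentrations. Endpoints by linear interpolation between flanking doses. Not reached: highest tested concentration assigned. GI50: concentration for 50% inhibition of growth.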 Active and inactive are the calls of the source. Rule as the data show it: active = GI50 up to about 1.1 µM and inactive = higher.

Experiments:
Test in all cases: NCI anticancer screen, dose series, 48 h
[1] = tested on: 786-0
[2] = tested on: A498
[3] = tested on: A549
[4] = tested on: ACHN
[5] = tested on: BT-549
[6] = tested on: CCRF-CEM
[7] = tested on: COLO 205
[8] = tested on: DU-145
[9] = tested on: EKVX
[10] = tested on: HCC 2998
[11] = tested on: HCT-116
[12] = tested on: HCT-15
[13] = tested on: HL-60
[14] = tested on: HOP-62
[15] = tested on: HOP-92
[16] = tested on: HT-29
[17] = tested on: Hs-578T
[18] = tested on: IGROV-1
[19] = tested on: K562
[20] = tested on: LOX IMVI
[21] = tested on: M14
[22] = tested on: MCF7
[23] = tested on: MDA-MB-231
[24] = tested on: MDA-N
[25] = tested on: MOLT-4
[26] = tested on: Malme-3M
[27] = tested on: NCI-H226
[28] = tested on: NCI-H23
[29] = tested on: NCI-H460
[30] = tested on: NCI-H522
[31] = tested on: NCI/ADR-RES
[32] = tested on: OVCAR-5
[33] = tested on: OVCAR-8
[34] = tested on: PC-3
[35] = tested on: RPMI-8226
[36] = tested on: RXF 393
[37] = tested on: SF-268
[38] = tested on: SF-295
[39] = tested on: SK-MEL-28
[40] = tested on: SK-MEL-2
[41] = tested on: SK-MEL-5
[42] = tested on: SK-OV-3
[43] = tested on: SN12C
[44] = tested on: SNB-19
[45] = tested on: SNB-75
[46] = tested on: SR
[47] = tested on: SW-620
[48] = tested on: T47D
[49] = tested on: TK-10
[50] = tested on: U-251
[51] = tested on: UACC-257
[52] = tested on: UACC-62
[53] = tested on: UO-31
[54] = tested on: CAKI-1
[55] = tested on: KM12
[56] = tested on: OVCAR-3
[57] = tested on: OVCAR-4
[58] = tested on: SF-539

NCCN(CCN(C(=O)Nc1ccccc1)c1ccccc1)C(=O)Nc1ccccc1
GI50 [1]: 24.9 µM (inactive)
GI50 [2]: 18.3 µM (inactive)
GI50 [3]: 30.6 µM (inactive)
GI50 [4]: 20.5 µM (inactive)
GI50 [5]: 22.7 µM (inactive)
GI50 [6]: 41.6 µM (inactive)
GI50 [7]: 23 µM (inactive)
GI50 [8]: 18.2 µM (inactive)
GI50 [9]: 23.6 µM (inactive)
GI50 [10]: 19.8 µM (inactive)
GI50 [11]: 16.3 µM (inactive)
GI50 [12]: 24.5 µM
GI50 [13]: 18.9 µM (inactive)
GI50 [14]: 16.7 µM (inactive)
GI50 [15]: 17.4 µM (inactive)
GI50 [16]: 28.5 µM (inactive)
GI50 [17]: 19.2 µM (inactive)
GI50 [18]: 17.6 µM (inactive)
GI50 [19]: 44.4 µM (inactive)
GI50 [20]: 19.4 µM (inactive)
GI50 [21]: 21.3 µM (inactive)
GI50 [22]: 19.6 µM (inactive)
GI50 [23]: 39.1 µM (inactive)
GI50 [24]: 20.3 µM (inactive)
GI50 [25]: 35.5 µM (inactive)
GI50 [26]: 17.1 µM (inactive)
GI50 [27]: 32.2 µM (inactive)
GI50 [28]: 24.3 µM (inactive)
GI50 [29]: 17.4 µM (inactive)
GI50 [30]: 19 µM (inactive)
GI50 [31]: 30.8 µM (inactive)
GI50 [32]: 19 µM (inactive)
GI50 [33]: 23 µM (inactive)
GI50 [34]: 24.5 µM (inactive)
GI50 [35]: 27.5 µM (inactive)
GI50 [36]: 14.7 µM (inactive)
GI50 [37]: 18.6 µM (inactive)
GI50 [38]: 18.5 µM (inactive)
GI50 [39]: 19 µM (inactive)
GI50 [40]: 19.2 µM (inactive)
GI50 [41]: 18.5 µM (inactive)
GI50 [42]: 20 µM (inactive)
GI50 [43]: 23.2 µM (inactive)
GI50 [44]: 28.6 µM (inactive)
GI50 [45]: 18.1 µM (inactive)
GI50 [46]: 27.6 µM (inactive)
GI50 [47]: 22.5 µM (inactive)
GI50 [48]: 20.7 µM (inactive)
GI50 [49]: 24.5 µM (inactive)
GI50 [50]: 28.9 µM (inactive)
GI50 [51]: 19 µM (inactive)
GI50 [52]: 16.6 µM (inactive)
GI50 [53]: 15.3 µM (inactive)

O=C(O)c1ccc(NNc2cc(=O)[nH]c(=O)[nH]2)cc1
GI50 [1]: > 100 µM (inactive)
GI50 [2]: > 100 µM (inactive)
GI50 [3]: > 100 µM (inactive)
GI50 [4]: > 100 µM (inactive)
GI50 [5]: > 100 µM (inactive)
GI50 [54]: > 10 µM (inactive)
GI50 [6]: > 100 µM (inactive)
GI50 [7]: > 100 µM (inactive)
GI50 [8]: > 100 µM (inactive)
GI50 [9]: > 100 µM (inactive)
GI50 [10]: > 100 µM (inactive)
GI50 [11]: > 100 µM (inactive)
GI50 [12]: > 100 µM
GI50 [13]: > 100 µM (inactive)
GI50 [14]: > 100 µM (inactive)
GI50 [16]: > 100 µM (inactive)
GI50 [17]: > 100 µM (inactive)
GI50 [18]: > 100 µM (inactive)
GI50 [19]: > 100 µM (inactive)
GI50 [55]: > 100 µM (inactive)
GI50 [20]: > 100 µM (inactive)
GI50 [21]: > 100 µM (inactive)
GI50 [22]: > 100 µM (inactive)
GI50 [23]: > 100 µM (inactive)
GI50 [24]: > 100 µM (inactive)
GI50 [25]: > 100 µM (inactive)
GI50 [26]: > 100 µM (inactive)
GI50 [27]: > 100 µM (inactive)
GI50 [28]: > 100 µM (inactive)
GI50 [29]: > 100 µM (inactive)
GI50 [31]: > 100 µM (inactive)
GI50 [56]: > 100 µM (inactive)
GI50 [57]: > 100 µM (inactive)
GI50 [32]: > 100 µM (inactive)
GI50 [33]: > 100 µM (inactive)
GI50 [34]: 24.4 µM (inactive)
GI50 [35]: > 100 µM (inactive)
GI50 [36]: > 100 µM (inactive)
GI50 [37]: > 100 µM (inactive)
GI50 [38]: > 100 µM (inactive)
GI50 [58]: > 100 µM (inactive)
GI50 [39]: > 100 µM (inactive)
GI50 [40]: > 100 µM (inactive)
GI50 [41]: > 100 µM (inactive)
GI50 [42]: > 100 µM (inactive)
GI50 [43]: > 100 µM (inactive)
GI50 [44]: > 100 µM (inactive)
GI50 [45]: 96.8 µM (inactive)
GI50 [46]: > 100 µM (inactive)
GI50 [47]: > 100 µM (inactive)
GI50 [48]: > 100 µM (inactive)
GI50 [49]: > 100 µM (inactive)
GI50 [50]: > 100 µM (inactive)
GI50 [51]: > 100 µM (inactive)
GI50 [52]: > 100 µM (inactive)
GI50 [53]: > 100 µM (inactive)
